# In US20110189157A1, “USE OF HUMAN HYALURONIDASES FOR AXONAL REGROWTH” (priority 2008, published 2011):
# How the values were obtained:
# [1] = tested on: damaged adult nigrostriatal tract; details: rat, cited from earlier work
# [2] = Chondroitinase activity assay: cleavage of biotin-labelled CS in solution, intact substrate detected on protamine-coated microplate; details: 0.8-100 milliunits enzyme; biotin-CS 0.01 μg/ml; 37° C., 1 h; FIG. 3
# Method: A solid phase, for example a microtiter plate, is coated with protamine by incubation of 100 μl/well of a 0.003% solution of protamine sulfate at 37° C. for 24 hours. Thereafter, plates were washed 3 times with A dest. and stored in the dark.
# Plates were washed 3 times with buffer (PBS/0.01% Tween 20) and Avidin-POD (1 μg/ml in PBS/5% BSA) was added.
# After 15 min plates were washed 5 times with PBS and 100 μl OPD-solution (0.667 mg/ml) was added.
# After 15 min the reaction was stopped by addition of 100 μl of 0.5 Mol H2SO4. OD was measured at 490 nm using a microplate reader.
# The enzyme reaction is carried out by mixing 50 μl of biotin-labelled CS at 0.01 μg/ml with increasing amounts of chondroitinase ABC, e.g. 0.8-100 nano-units of chondroitinase ABC. Samples were brought to a volume of 100 μl by addition of PBS.
# This mixture is incubated at 37° C. for 1 h. Thereafter the enzyme was inactivated by heating at 100° C. for 10 min.
# Samples (85 μl of the samples) were transferred to the CS-BP (protamine)-coated microplate and incubated for 1 hour at room temperature.
# The enzyme reaction is carried out by mixing 50 μl of biotin-labelled CS at 0.01 μg/ml with increasing amounts of hyaluronidase, e.g. 0.8-100 milliunits of hyaluronidase. Samples were brought to a volume of 100 μl by addition of PBS.
# This mixture is incubated at 37° C. for 1 h. […]
Substance,persistence of active enzyme in the injured CNS ([1]; in vivo),axon regeneration ([1]; single dose injected adjacent to damaged nigrostriatal tract),"degradation of biotin-labelled chondroitin sulfate (decrease in signal, OD 490 nm) [2]"
chondroitinase ABC,at least 10 days,promoted axon regeneration,–
hyaluronidase,–,–,dose-dependent degradation
